From US8614223B2, “Pyrimidine hydroxy amide compounds as protein deacetylase inhibitors and methods of use thereof” (Acetylon Pharmaceuticals, Inc., priority 2010, dated 2013)

Legend:
HDAC2 = HDAC2 (Homo sapiens (Human), UniProt Q92769); assay: HDAC enzyme assay, HDAC2; details: for HDAC2 fold over HDAC6 IC50 (selectivity for HDAC6): ratio HDAC2/HDAC6; for IC50: read-out: HDAC2 IC50
HDAC6 = HDAC6 (Homo sapiens (Human), UniProt Q9UBN7); details: read-out: HDAC6 IC50
HDAC1 = HDAC1 (Homo sapiens (Human), UniProt Q13547); assay: HDAC enzyme assay, HDAC1; details: for HDAC1 fold over HDAC6 IC50 (selectivity for HDAC6): ratio HDAC1/HDAC6; for IC50: read-out: HDAC1 IC50
Chain of HDAC1 (Q13547 whole entry): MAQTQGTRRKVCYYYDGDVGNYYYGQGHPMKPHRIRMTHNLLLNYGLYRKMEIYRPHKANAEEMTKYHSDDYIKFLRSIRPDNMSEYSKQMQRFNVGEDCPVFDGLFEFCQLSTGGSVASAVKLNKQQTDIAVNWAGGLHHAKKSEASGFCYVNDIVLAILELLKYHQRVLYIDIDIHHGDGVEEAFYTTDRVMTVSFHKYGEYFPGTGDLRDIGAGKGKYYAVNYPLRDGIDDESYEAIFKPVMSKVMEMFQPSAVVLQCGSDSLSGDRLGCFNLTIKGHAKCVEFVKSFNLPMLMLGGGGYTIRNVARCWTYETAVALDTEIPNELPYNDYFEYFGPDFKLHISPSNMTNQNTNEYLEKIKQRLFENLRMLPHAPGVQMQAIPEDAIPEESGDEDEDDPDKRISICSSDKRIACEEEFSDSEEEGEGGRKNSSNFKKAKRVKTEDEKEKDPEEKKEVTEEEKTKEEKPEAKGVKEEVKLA

HDAC3 = HDAC3 (Homo sapiens (Human), UniProt O15379); assay: HDAC enzyme assay, HDAC3; details: for HDAC3 fold over HDAC6 IC50 (selectivity for HDAC6): ratio HDAC3/HDAC6; for IC50: read-out: HDAC3 IC50
Chain of HDAC3 (O15379 whole entry): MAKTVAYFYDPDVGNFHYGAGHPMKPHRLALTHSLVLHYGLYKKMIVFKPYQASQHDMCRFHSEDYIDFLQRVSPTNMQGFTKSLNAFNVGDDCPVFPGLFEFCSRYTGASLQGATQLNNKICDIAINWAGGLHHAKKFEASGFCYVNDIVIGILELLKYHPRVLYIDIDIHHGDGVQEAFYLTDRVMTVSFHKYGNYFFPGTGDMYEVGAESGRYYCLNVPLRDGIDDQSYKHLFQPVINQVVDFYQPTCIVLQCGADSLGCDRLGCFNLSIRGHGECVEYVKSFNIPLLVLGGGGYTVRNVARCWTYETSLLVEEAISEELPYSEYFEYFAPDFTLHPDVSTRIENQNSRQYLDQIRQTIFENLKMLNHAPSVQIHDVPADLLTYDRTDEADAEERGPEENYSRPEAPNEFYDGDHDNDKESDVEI
Chain of HDAC3 (Q9Y618 395-489 partner): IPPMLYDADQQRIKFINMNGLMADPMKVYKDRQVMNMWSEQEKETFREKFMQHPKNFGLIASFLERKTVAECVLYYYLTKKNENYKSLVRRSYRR

Chain of HDAC2 (Q92769 whole entry): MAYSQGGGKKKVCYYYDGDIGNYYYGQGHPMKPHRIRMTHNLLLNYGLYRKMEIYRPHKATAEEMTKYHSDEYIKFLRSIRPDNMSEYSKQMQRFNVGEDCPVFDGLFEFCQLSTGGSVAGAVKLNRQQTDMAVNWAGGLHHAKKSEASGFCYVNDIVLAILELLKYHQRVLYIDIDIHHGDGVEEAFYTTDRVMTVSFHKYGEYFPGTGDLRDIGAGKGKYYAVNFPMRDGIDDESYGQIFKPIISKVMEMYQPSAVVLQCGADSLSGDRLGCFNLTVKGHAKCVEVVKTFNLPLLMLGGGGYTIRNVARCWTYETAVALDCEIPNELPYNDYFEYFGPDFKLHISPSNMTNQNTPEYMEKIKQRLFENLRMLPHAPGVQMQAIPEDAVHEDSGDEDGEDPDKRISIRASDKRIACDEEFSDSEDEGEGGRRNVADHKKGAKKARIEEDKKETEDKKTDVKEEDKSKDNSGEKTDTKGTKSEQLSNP
Chain of HDAC6 (Q9UBN7 whole entry): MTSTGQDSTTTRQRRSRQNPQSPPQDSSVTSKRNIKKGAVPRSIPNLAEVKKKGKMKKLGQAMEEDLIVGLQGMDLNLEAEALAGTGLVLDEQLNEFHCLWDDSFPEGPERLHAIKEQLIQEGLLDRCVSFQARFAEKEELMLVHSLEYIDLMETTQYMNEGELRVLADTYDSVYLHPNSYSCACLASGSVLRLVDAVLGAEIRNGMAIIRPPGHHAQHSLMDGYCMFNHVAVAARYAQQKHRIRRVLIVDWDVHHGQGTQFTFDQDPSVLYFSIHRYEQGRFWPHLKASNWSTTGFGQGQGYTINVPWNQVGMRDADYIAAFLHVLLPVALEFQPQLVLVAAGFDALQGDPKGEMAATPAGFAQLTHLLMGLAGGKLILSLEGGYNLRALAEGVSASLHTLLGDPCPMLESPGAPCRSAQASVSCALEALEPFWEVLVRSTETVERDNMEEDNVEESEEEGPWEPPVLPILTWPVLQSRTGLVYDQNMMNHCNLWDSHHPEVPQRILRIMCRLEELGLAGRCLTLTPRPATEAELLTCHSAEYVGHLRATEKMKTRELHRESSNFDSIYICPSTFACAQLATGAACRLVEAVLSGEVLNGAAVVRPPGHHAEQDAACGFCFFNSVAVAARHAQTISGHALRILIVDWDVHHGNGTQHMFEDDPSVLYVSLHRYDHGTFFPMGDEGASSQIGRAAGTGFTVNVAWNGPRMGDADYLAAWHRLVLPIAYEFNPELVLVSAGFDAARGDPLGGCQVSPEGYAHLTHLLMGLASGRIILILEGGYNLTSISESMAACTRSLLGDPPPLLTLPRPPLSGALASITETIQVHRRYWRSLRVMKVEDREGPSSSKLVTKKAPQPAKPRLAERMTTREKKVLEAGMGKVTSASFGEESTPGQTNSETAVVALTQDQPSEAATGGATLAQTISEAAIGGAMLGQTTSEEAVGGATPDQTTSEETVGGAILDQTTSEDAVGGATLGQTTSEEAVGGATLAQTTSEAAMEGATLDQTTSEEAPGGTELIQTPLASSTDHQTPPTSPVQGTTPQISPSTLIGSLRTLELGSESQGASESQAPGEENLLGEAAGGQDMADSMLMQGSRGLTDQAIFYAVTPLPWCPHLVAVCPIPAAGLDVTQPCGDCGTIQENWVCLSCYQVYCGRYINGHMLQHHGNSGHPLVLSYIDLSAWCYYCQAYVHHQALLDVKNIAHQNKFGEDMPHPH

Structure (SMILES)	HDAC2 fold over HDAC6 IC50 (selectivity for HDAC6) (HDAC2)	IC50 (HDAC2)	IC50 (HDAC6)	HDAC1 fold over HDAC6 IC50 (selectivity for HDAC6) (HDAC1)	IC50 (HDAC1)	HDAC3 fold over HDAC6 IC50 (selectivity for HDAC6) (HDAC3)	IC50 (HDAC3)
O=C(NO)c1cnc(Nc2cc(Cl)cc(C(F)(F)F)c2)nc1 [Compound 25]	(92.6x)	0.938 µM	0.01 µM	(50.9x)	0.516 µM	(81.9x)	0.83 µM
O=C(NO)c1cnc(Nc2cc(F)cc(C(F)(F)F)c2)nc1 [Compound 26]	(68.3x)	0.345 µM	0.005 µM	(31.4x)	0.159 µM	(53.4x)	0.27 µM
O=C(NO)c1cnc(NCc2ccccc2OC(F)(F)F)nc1 [Compound 47]	(86.7x)	0.346 µM	0.004 µM	(55.8x)	0.223 µM	(75.1x)	0.3 µM
CC(Nc1ncc(C(=O)NO)cn1)(c1ccccc1)c1ccccc1 [Compound 79]	(319.8x)	1.83 µM	0.006 µM	(221.6x)	1.27 µM	(817.2x)	4.68 µM
O=C(NO)c1cnc(Nc2ccc(F)cc2)nc1 [Compound 3]	(44.1x)	0.347 µM	0.008 µM	(26.7x)	0.21 µM	(44.9x)	0.354 µM
CC(Nc1ncc(C(=O)NO)cn1)c1ccncc1 (stereo not drawn) [Compound 85]	(26.2x)	0.096 µM	0.004 µM	(18.1x)	0.067 µM	(36.9x)	0.135 µM
O=C(NO)c1cnc(NCc2c(Cl)cccc2Cl)nc1 [Compound 48]	(80.8x)	0.601 µM	0.007 µM	(48.8x)	0.363 µM	(53.9x)	0.401 µM
O=C(NO)c1cnc(NC2(c3ccco3)CC2)nc1 [Compound 99]	(75.6x)	0.32 µM	0.004 µM	(47.3x)	0.2 µM	(81.5x)	0.345 µM
COc1ccc(C2(Nc3ncc(C(=O)NO)cn3)CC2)cc1OC [Compound 138]	(6x)	0.049 µM	0.008 µM	(6.2x)	0.05 µM	(13.9x)	0.113 µM
O=C(NO)c1cnc(Nc2cccc(-c3ccncc3)c2)nc1 [Compound 30]	(56.5x)	0.181 µM	0.003 µM	(27.5x)	0.088 µM	(44.1x)	0.141 µM
O=C(NO)c1cnc(NC2(c3cccc(F)c3)CCCCC2)nc1 [Compound 101]	(343.2x)	2.57 µM	0.007 µM	(283.5x)	2.12 µM	(1498.8x)	11.2 µM
COc1cc(OC)cc(C2(Nc3ncc(C(=O)NO)cn3)CC2)c1 [Compound 129]	(15.4x)	0.052 µM	0.003 µM	(12.7x)	0.043 µM	(36.6x)	0.124 µM
O=C(NO)c1cnc(NC2(c3ccccc3Cl)CC2)nc1 [Compound 90]	(26.2x)	0.036 µM	0.001 µM	(19.9x)	0.027 µM	(30.2x)	0.041 µM
O=C(NO)c1cnc(NC2(c3ccccc3)CCCC2)nc1 [Compound 88]	(296.1x)	0.978 µM	0.003 µM	(215.2x)	0.711 µM	(679.1x)	2.24 µM
O=C(NO)c1cnc(NC2(c3cc(F)cc(F)c3)CCOCC2)nc1 [Compound 155]	(34x)	0.236 µM	0.007 µM	(37.9x)	0.262 µM	(176x)	1.22 µM
